Measurements as given in patent publication US6054315A, “Method for making activated neutrophils recognizable to macrophages” (The Board of Regents of the University of Oklahoma, priority 1997, dated 2000).

Assays:
[1] = target: T1, hamster galectin-1 mutant N-Gal-1 (monomeric; disruptions of three hydrophobic amino acids at the N-terminus) (Cricetulus griseus, UniProt P48538, A7S/C3S/L5Q/V6D); assay: Equilibrium dialysis, binding of N-acetyllactosamine
T1 construct: made in house; host or cells: E. coli (for the recombinant CHO galectin-1)
Method: (§1) To investigate whether dimerization of the galectin-1 is required to induce apoptosis, mutated forms of galectin-1 were prepared. Recombinant hamster galectin-1, which is highly homologous in sequence with bovine and human galectin-1 with 100% identity at the N- and C-termini positions was used. The protein was prepared as described in Cho and Cummings, 1995b, J. Biol. Chem., 270:5198-5206, ibid, J. Biolchem, 270:5207, 1995. This protein (monomeric or dimeric) contains a stabilizing mutation in which Cys at the 2nd residue was converted to Ser.
(§2) Specific mutations were created in the N- and C-termini of hamster galectin-1, as indicated in FIG. 3 and as described in further detail in Cho and Cummings, Biochemistry, 35:13081, 1996, which is hereby incorporated by reference herein in its entirety. C2S-Gal-1 contains a single replacement of Cys-2 to Ser. V5D-Gal-1 contains a single mutation of Val-5 to Asp. N-Gal-1 contains disruptions of three hydrophobic amino acids at the N-terminus. We also made another mutant construct, termed N/C-Gal-1, which contained the amino terminal changes of N-Gal-1 in addition to multiple changes in specific hydrophobic amino acids at the C-terminus (data not shown). All mutants, except for C2S-Gal-1, behaved as monomers in size exclusion HPLC and native gel electrophoresis. C2S-Gal-1 was indistinguishable from the native lectin in its ability to undergo monomer-dimer equilibrium and in its carbohydrate-binding affinity. […] However, in equilibrium dialysis N-Gal-1 and V5D-Gal-1 bound N-acetyllactosamine with similar affinity (Kd 90 μM) to that of the C2S-Gal-1 and the native lectin. […] N/C-Gal-1 was non-functional.

[2] = target: T2, hamster galectin-1 mutant C2S-Gal-1 (Cys-2 to Ser) (Cricetulus griseus, UniProt P48538, C3S); assay: as above; conditions: stated as similar affinity to the mutants
T2 construct: made in house; host or cells: E. coli (for the recombinant CHO galectin-1)
Method: as §1, §2

[3] = target: T3, hamster galectin-1 mutant V5D-Gal-1 (Val-5 to Asp) (Cricetulus griseus, UniProt P48538, V6D); assay: as above
T3 construct: made in house; host or cells: E. coli (for the recombinant CHO galectin-1)
Method: as §1, §2

[4] = target: native galectin-1 (native lectin) (Cricetulus griseus, UniProt P48538); assay: as above; set-up: species or system hamster; conditions: stated as similar affinity to the mutants
Method: as §1
Specific mutations were created in the N- and C-termini of hamster galectin-1, as indicated in FIG. 3 and as described in further detail in Cho and Cummings, Biochemistry, 35:13081, 1996, which is hereby incorporated by reference herein in its entirety. C2S-Gal-1 contains a single replacement of Cys-2 to Ser. V5D-Gal-1 contains a single mutation of Val-5 to Asp. N-Gal-1 contains disruptions of three hydrophobic amino acids at the N-terminus. We also made another mutant construct, termed N/C-Gal-1, which contained the amino terminal changes of N-Gal-1 in addition to multiple changes in specific hydrophobic amino acids at the C-terminus (data not shown). All mutants, except for C2S-Gal-1, behaved as monomers in size exclusion HPLC and native gel electrophoresis. […]

[5] = target: T4, recombinant galectin-1 (Cys at the 2nd residue converted to Ser) (Cricetulus griseus, UniProt P48538, C3S); assay: Galectin-1 agglutination of activated neutrophils and desialylated HL-60 cells, inhibition by sugars; format: cell-based, hamster
T4 construct: made in house; host or cells: E. coli (for the recombinant CHO galectin-1)
Method: In all cases cell binding of galectin-1 to cells was inhibited by 10 mM lactose, a known inhibitor of galectin-1 (FIG. 1), but not by 10 mM maltose, an isomeric, non-inhibitory analog (data not shown). We noted that both activated neutrophils and desialylated HL-60 cells are strongly agglutinated by galectin-1, whereas resting neutrophils and HL-60 cells are not appreciably agglutinated, which further underscores the profound differences in surface phenotypes between resting and activated neutrophils.
(§3) Annexin V is a protein that recognizes phosphatidyl serine (PS) and is a convenient marker for apoptosis of neutrophils and other cells (S. J. Martin, C. P. Reutelingsperger, A. J. McGahon, J. A. Rader, R. C. van Schie, D. M. LaFace and D. R. Green D R, J. Exp. Med., 182:1545, 1995; C. H. Homburg, M. de Haas, A. E. von dem Borne, A. J. Verhoeven, C. P. Reutelingsperger and D. Roos, Blood, 85:532, 1995; I. Vermes, C. Haanen, H. Steffens-Nakken, and C. Reutelingsperger, J. Immunol. Methods, 184:39, 1995; Z. Darzynkiewicz, G. Juan, X. Li, W. Gorczyca, T. Murakami, and F. Traganos, Cytometry 27:1, 1997). […] Within 90 minutes following treatment with 10 μM galectin-1, 36% of the activated neutrophils undergo apoptosis, as determined by their staining with annexin V (FIG. 2A). […]

[6] = target: T4, recombinant galectin-1 (Cys at the 2nd residue converted to Ser); assay: Galectin-1-induced apoptosis of activated neutrophils and desialylated HL-60 cells (annexin V), inhibition by sugars; format: cell-based, hamster; conditions: galectin-1 10 μM; lactose 10 mM in the method
Method: Resting or activated neutrophils (3×10^6 cells) were treated with galectin-1 (10 μM) in 0.5 ml of HBSS (lacking Ca^2+ /Mg^2+ and containing 0.5% human albumin) for 90 minutes at 37° C. in the presence or absence of 10 mM lactose. HL-60 cells and desialylated HL-60 cells (3×10^6 cells/0.5 ml) were treated with galectin-1 (10 μM) for 20 hours at 37° C. in the presence or absence of 10 mM lactose. At the end of the incubations all cells were treated with 10 mM lactose in PBS to disaggregate the cells. […]
as §3

[7] = target: T4, recombinant galectin-1 (Cys at the 2nd residue converted to Ser); assay: Binding of biotinylated galectin-1 to activated neutrophils and desialylated HL-60 cells (flow cytometry), inhibition by sugars; format: cell-based, hamster; conditions: sugar at 10 mM; galectin-1 10 μg/ml, 30 minutes on ice
Source text: Isolated neutrophils were activated by treatment with PMA and HL-60 cells were desialylated by treatment with neuraminidase. Heparinized blood was obtained from normal donors. Neutrophils were isolated by dextran sedimentation, hypotonic lysis, and density gradient centrifugation on Histopaque-1077 (Sigma), as described [G. A. Zimmerman, T. M. McIntyre, and S. M. Prescott, J. Clin. Invest., 76:2235, 1985]. Typically, the polymorphonuclear cells were >90% neutrophils by Wright-Giemsa staining and >90% CD16^+ as assessed by flow cytometry. Neutrophils were activated by treatment with phorbol myristate acetate (PMA) (Sigma) (0.5 μM) for 20 minutes at 37° C. in RPMI containing 20% FCS (0.5 ml). HL-60 cells were routinely maintained in RPMI containing 20% FCS. Desialylated HL-60 cells were prepared by treating 3×10^7 cells with Arthrobacter ureafaciens neuraminidase (Sigma) (100 mU) in 500 μl of RPMI containing 20% FCS for 1 hour at 37° C. […] The washed cells were incubated with FITC-streptavidin (1:100 dilution) (Sigma), washed once with PBS, and analyzed by flow cytometry. […] "Unstained" indicates fluorescence of either resting neutrophils or HL-60 cells incubated in the absence of either MAL or galectin-1. "Control" indicates fluorescence of either activated neutrophils or desialylated HL-60 cells incubated with galectin-1 in the presence of 10 mM lactose. […]

T4 sequence (P48538 whole entry C3S): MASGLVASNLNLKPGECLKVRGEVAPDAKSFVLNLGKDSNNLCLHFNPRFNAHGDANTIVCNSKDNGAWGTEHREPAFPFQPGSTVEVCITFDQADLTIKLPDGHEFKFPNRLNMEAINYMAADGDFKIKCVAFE
T1 sequence (P48538 2-135 C3S/L5Q/V6D/A7S limits assumed): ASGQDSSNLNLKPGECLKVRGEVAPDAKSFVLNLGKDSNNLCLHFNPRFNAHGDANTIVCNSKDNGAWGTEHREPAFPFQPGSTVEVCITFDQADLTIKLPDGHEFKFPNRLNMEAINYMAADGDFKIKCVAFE
T2 sequence (P48538 whole entry C3S): as the sequence (P48538 whole entry C3S) above
native galectin-1 (native lectin), sequence (P48538 2-135): as the sequence (P48538 2-135 C3S/L5Q/V6D/A7S limits assumed) above, with S2C, Q4L, D5V, S6A counted along it
T3 sequence (P48538 whole entry V6D): as the sequence (P48538 whole entry C3S) above, with S3C, V6D counted along it

Kd [1] [µM] | Kd [2] [µM] | Kd [3] [µM] | Kd [4] [µM] | inhibition of cell agglutinating activity of galectin-1 [5] | inhibition of apoptosis-inducing activity of galectin-1 [6] | inhibition of binding of galectin-1 to cells [7] | SMILES
90 | ~90 | 90 | ~90 |  |  |  | CC(=O)N[C@H]1C(O)O[C@H](CO)[C@@H](O[C@@H]2O[C@H](CO)[C@H](O)[C@H](O)[C@H]2O)[C@@H]1O (stereo partly shown) [N-acetyllactosamine]
 |  |  |  | inhibited | inhibited | inhibited | OC[C@H]1O[C@@H](O[C@H]2[C@H](O)[C@@H](O)C(O)O[C@@H]2CO)[C@H](O)[C@@H](O)[C@H]1O (stereo partly shown) [lactose]
 |  |  |  | not | not | not | OC[C@H]1O[C@H](O[C@H]2[C@H](O)[C@@H](O)[C@H](O)O[C@@H]2CO)[C@H](O)[C@@H](O)[C@@H]1O [maltose]
